Drawing on patent US20100063085A1, “METHOD OF TREATING LEARNING IMPAIRMENT IN DOWN'S SYNDROME SUBJECTS” (University Court of The University of Dundee, priority 2008, published 2010), this text covers remaining activity for three compounds.

Read-outs that look alike come from different tables or passages of the source.

The target in one assay is p70 S6K (Homo sapiens, UniProt P23443). In words: p70 S6K 33P kinase assay. The format is biochemical. Particulars: read-out: p70 S6K activity as percentage of control without inhibitor; for remaining activity at 1 µM: inhibitor 1 μM; for remaining activity at 10 µM: inhibitor 10 μM. The method, then:
(§1) All assays (25.5 μl) were carried out at room temperature (21° C.) and were linear with respect to time and enzyme concentrations under the conditions used. Assays were performed for 30 minutes except assays for LCK and PKB which were performed for 15 minutes using Multidrop Micro reagent dispensers (Thermo Electron Corporation, Waltham, Mass. 02454, USA) in a 96-well format. The concentration of […] [γ-^33P] ATP (800 cpm/pmol) in the assays was one of three concentrations (5, 20 or 50 μM) in order to be at or below Km for ATP for the enzyme. Assays were initiated with MgATP and stopped by addition of 5 μl of 0.5M orthophosphoric acid. Assays were then harvested onto P81 filterplates using a unifilter harvester (PerkinElmer, Boston, Mass. 02118, USA), with a wash buffer of 50 mM orthophosphoric acid. Filterplates were then air dried overnight. 10 μl of Microscint O was added per well prior to counting for radioactivity.
MKK1, JNK/SAPK1c, SAPK2a/p38, SAPK2b/p38β2, SAPK3/p38γ, SAPK4/p38δ, MAPK2/ERK2, MAPKAP-K1β, MAPKAP-K2, MSK1, PRAK, PKA, PKCα, PDK1, SGK, p70S6K, GSK3β, ROCK-II, PRK2, AMPK, CHK1, CHK2, CK2, PHK, LCK, were assayed according to Davies et al., (Davies, S. P., Reddy, H., Caivano, M. and Cohen, P. Biochem. J. 351, 95-105, 2000.
CSK and CDK2/cyclinA, were assayed according to Bain et al. (Bain J, McLauchlan H, Elliott M, Cohen P. Biochem J. 371, 199-204, 2003., except that ATP concentrations were either 5, 20 or 50 micromolar so that they were at or below the Km for ATP. The ATP concentrations used were as follows, 5 μM for assays of MKK1, SAPK3, SAPK4, GSK3β, PRK2 CK2 20 μm for assays of JNK, SAPK2β, MAPKAP-K2, MSK1, PRAK, PKA, […], PDK1, SGK, p70S6K, ROCK-II, CHK1, CHK2, CSK, CDK2, and 50 μM for assays of SAPK2a, MAPK2/ERK2, AMPK, LCK, PHK and MAPKAP-K1β.

A further assay has as its target Src (Homo sapiens, UniProt P12931). The assay can be described thus: biochemical. The conditions noted are these: read-out: Src activity as percentage of control without inhibitor; for remaining activity at 10 µM: inhibitor 10 μM. The method, then: as §1, with “Assays” for “All assays (25.5 μl) were carried out at room temperature (21° C.) and were linear with respect to time and enzyme concentrations under the conditions used. Assays”
The following kinases were assayed against the substrates indicated. Aurora B was assayed against the substrate peptide […] (300 μM), ERK8 and MST-2 were both assayed against MBP (0.33 mg/ml). IKKβ was assayed against the substrate peptide […] (300 μM), JNK3 was assayed against 3 μM ATF2[19-96]. MAPKAP-K3 and PKD1 were both assayed against […] (30 μM), MARK3 was assayed against CHKtide ([…]) substrate peptide (300 μM). MNK1 and MNK2 were both assayed against eIF4E protein (0.5 mg/ml). NEK7 was assayed against […] (300 μM), PIM2 was assayed against […] (300 μM), ΔPH PKBβ-S474D was assayed against Crosstide (30 μM), PLK1 was assayed against […] (300 μM). PRK2 was assayed against Long S6 peptide, […] (30 μM), RSK2 was assayed against […] (30 μM), SRC was assayed against cdc2 peptide, […], (300 μM) and SRPK1 was assayed against peptide […] (300 μM). All enzymes were diluted in 50 mM Tris/HCl pH 7.5, 0.1 mM EGTA, 1 mg/ml BSA, 0.1% β-mercaptoethanol buffer and assayed in an incubation containing 50 mM Tris/HCl pH7.5, 0.1 mM EGTA, 0.1% β-mercaptoethanol, CAMK-1 (5-20 mU) diluted in 50 mM Tris/HCl pH 7.5, 0.1 mM EGTA, 1 mg/ml BSA, 0.1% β-mercaptoethanol is assayed against substrate peptide […] in an incubation containing 50 mM Tris/HCl pH 7.5, 0.1 mM EGTA, 0.5 mM CaCl2, 0.3 μM calmodulin, 0.1% β-mereaptoethanol, 300 μM substrate peptide, 10 mM magnesium acetate and 0.05 mM [^33P-γ-ATP] (500-1000 cpm/pmole). EF2K (5-20 mU) diluted in 50 mM Hepes pH 6.6, 0.1% β-mercaptoethanol, 1 mg/ml BSA is assayed against a substrate peptide […] in an incubation containing 50 mM Hepes pH 6.6, 0.2 mM CaCl2, 0.3 μM Calmodulin, 0.05% b-mercaptoethanol, 300 μM substrate peptide, 10 mM magnesium acetate and 0.05 mM [^33P-γ-ATP] (500-1000 cpm/pmole).

Sequence of p70 S6K (P23443 whole entry): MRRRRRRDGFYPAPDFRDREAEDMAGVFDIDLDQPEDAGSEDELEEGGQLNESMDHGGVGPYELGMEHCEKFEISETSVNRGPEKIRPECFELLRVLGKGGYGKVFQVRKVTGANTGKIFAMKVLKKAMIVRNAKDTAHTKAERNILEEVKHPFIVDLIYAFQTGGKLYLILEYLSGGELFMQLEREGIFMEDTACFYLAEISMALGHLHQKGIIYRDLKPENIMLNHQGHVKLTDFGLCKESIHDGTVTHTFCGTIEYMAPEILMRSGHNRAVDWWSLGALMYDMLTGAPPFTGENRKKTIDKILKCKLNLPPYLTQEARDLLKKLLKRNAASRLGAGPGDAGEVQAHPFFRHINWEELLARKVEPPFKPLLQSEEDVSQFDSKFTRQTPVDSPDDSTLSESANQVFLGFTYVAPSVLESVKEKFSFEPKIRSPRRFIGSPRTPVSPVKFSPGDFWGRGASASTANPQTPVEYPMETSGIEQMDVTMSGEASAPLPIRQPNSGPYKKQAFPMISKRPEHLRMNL
Sequence of Src (P12931 whole entry, species assumed): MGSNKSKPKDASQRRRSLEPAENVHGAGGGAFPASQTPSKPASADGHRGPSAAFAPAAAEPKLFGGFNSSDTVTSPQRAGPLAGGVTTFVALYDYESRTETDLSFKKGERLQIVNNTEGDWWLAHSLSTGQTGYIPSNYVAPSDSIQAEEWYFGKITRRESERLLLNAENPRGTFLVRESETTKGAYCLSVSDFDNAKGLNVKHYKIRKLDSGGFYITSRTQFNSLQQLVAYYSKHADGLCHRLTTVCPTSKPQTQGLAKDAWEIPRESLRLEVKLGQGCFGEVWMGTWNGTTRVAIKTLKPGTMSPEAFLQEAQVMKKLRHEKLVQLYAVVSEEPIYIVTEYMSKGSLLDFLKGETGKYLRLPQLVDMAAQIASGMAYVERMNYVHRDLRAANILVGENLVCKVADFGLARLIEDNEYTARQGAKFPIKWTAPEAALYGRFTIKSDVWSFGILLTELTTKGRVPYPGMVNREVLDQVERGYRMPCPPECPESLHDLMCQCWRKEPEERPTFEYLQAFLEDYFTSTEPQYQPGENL

Consider `COc1ccc2c3c([nH]c2c1)C(C)=NCC3` [Harmaline], for which the remaining activity at 1 µM at p70 S6K came to 71%; on Src (inhibitor 1 μM), 47%. The remaining activity at 10 µM at p70 S6K came out at 83%; on Src it was 65%.

Regarding `CC1=NCCc2c1[nH]c1cc(O)ccc21` [Harmalol], the results for the remaining activity at 1 µM on p70 S6K and at Src (inhibitor 1 μM) were 95% and 101%, respectively. Also, the remaining activity at 10 µM at p70 S6K was determined as 69%; on Src it was 83%.

As to `COc1ccc2c(c1)[nH]c1c(C)nccc12` [Harmine], at p70 S6K, the remaining activity at 1 µM was 90% and the remaining activity at 10 µM was determined as 93%. Moreover, at Src, the remaining activity at 1 µM came to 108%.
